Results from patent US20140107100A1, “Benzoxazepines as Inhibitors of PI3K/mTOR and Methods of Their Use and Manufacture” (EXELIXIS, INC., priority 2010, published 2014).

target: mTOR/GbL/Raptor (mTORC1) (Homo sapiens, UniProt P42345); assay: mTOR/GbL/Raptor (mTORC1) ELISA assay, phosphorylation of 4E-BP1; type: biochemical; settings: 0.2 nM mTORC1, 40 uM ATP, 50 nM NHis-tagged 4E-BP1, 120 minutes; read-out: IC50 in this assay (mTORC1 ELISA)
In short: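 Phospho-4E-BP1 was quantified by luminescent ELISA (anti-phospho-4E-BP1 IgG, HRP-tagged secondary) after capture of the His-tagged substrate on Ni-chelate plates.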

SMILES | IC50 [nM]
Cc1cc(-c2cnc3sc(N)nc3c2)cc2c1OCCN(c1nc(CN(C)CCF)nc(C)c1C(C)C)C2 [Compound 156, 6-{4-[2-{[(2-fluoroethyl)(methyl)amino]methyl}-6-methyl-5-(1-methylethyl)pyrimidin-4-yl]-9-methyl-2,3,4,5-tetrahydro-1,4-benzoxazepin-7-yl}[1,3]thiazolo[5,4-b]pyridin-2-amine] | ≤ 100
CCc1nc(CN(C)C)nc(N2CCOc3c(C)cc(-c4cnc5sc(N)nc5c4)cc3C2)c1C(C)C [Compound 88, 6-(4-{2-[(dimethylamino)methyl]-6-ethyl-5-(1-methylethyl)pyrimidin-4-yl}-9-methyl-2,3,4,5-tetrahydro-1,4-benzoxazepin-7-yl)[1,3]thiazolo[5,4-b]pyridin-2-amine] | ≤ 100
Cc1cc(-c2cncnc2)cc2c1OCCN(c1nc(N)nc(C)c1C(C)C)C2 [Compound 71, 4-methyl-5-(1-methylethyl)-6-(9-methyl-7-pyrimidin-5-yl-2,3-dihydro-1,4-benzoxazepin-4(5H)-yl)pyrimidin-2-amine] | 100 to 500
Cc1cc(-c2cccnc2)cc2c1OCCN(c1nc(N)nc(C)c1C(C)C)C2 [Compound 76, 4-methyl-5-(1-methylethyl)-6-(9-methyl-7-pyridin-3-yl-2,3-dihydro-1,4-benzoxazepin-4(5H)-yl)pyrimidin-2-amine] | 100 to 500
CCc1cnc(CN(C)C)nc1N1CCOc2c(C)cc(-c3cnc4sc(N)nc4c3)cc2C1 [Compound 66, 6-(4-{2-[(dimethylamino)methyl]-5-ethylpyrimidin-4-yl}-9-methyl-2,3,4,5-tetrahydro-1,4-benzoxazepin-7-yl)[1,3]thiazolo[5,4-b]pyridin-2-amine] | ≤ 100
Cc1cc(-c2ccc3c(c2)OCO3)cc2c1OCCN(c1nc(N)nc(C)c1C(C)C)C2 [Compound 73, 4-[7-(1,3-benzodioxol-5-yl)-9-methyl-2,3-dihydro-1,4-benzoxazepin-4(5H)-yl]-6-methyl-5-(1-methylethyl)pyrimidin-2-amine] | 100 to 500
Cc1cc(-c2cnc3sc(N)nc3c2)cc2c1OCCN(c1ncnc3c1CC(C)(C)C=C3)C2 [Compound 23, 6-[4-(6,6-dimethyl-5,6-dihydroquinoazolin-4-yl)-9-methyl-2,3,4,5-tetrahydro-1,4-benzoxazepin-7-yl][1,3]thiazolo[5,4-b]pyridin-2-amine] | ≤ 100
Cc1cc(-c2cnc(Cl)c(NS(C)(=O)=O)c2)cc2c1OCCN(c1nc(N)nc(C)c1C(C)C)C2 [Compound 6, N-(5-{4-[2-amino-6-methyl-5-(1-methylethyl)pyrimidin-4-yl]-9-methyl-2,3,4,5-tetrahydro-1,4-benzoxazepin-7-yl}-2-chloropyridin-3-yl)methanesulfonamide] | ≤ 100
Cc1cc(-c2cnc3sc(N)nc3c2)cc2c1OCCN(c1nc(N)nc(C)c1-c1cccc(F)c1)C2 [Compound 49, 6-{4-[2-amino-5-(3-fluorophenyl)-6-methylpyrimidin-4-yl]-9-methyl-2,3,4,5-tetrahydro-1,4-benzoxazepin-7-yl}[1,3]thiazolo[5,4-b]pyridin-2-amine] | ≤ 100
C=CCc1c(C)nc(N)nc1N1CCOc2c(C)cc(-c3cnc4sc(N)nc4c3)cc2C1 [Compound 51, 6-{4-(2-amino-6-methyl-5-prop-2-en-1-ylpyrimidin-4-yl)-9-methyl-2,3,4,5-tetrahydro-1,4-benzoxazepin-7-yl][1,3]thiazolo[5,4-b]pyridin-2-amine] | ≤ 100
C=C(C)c1c(C)nc(N)nc1N1CCOc2c(C)cc(-c3cnc4sc(N)nc4c3)cc2C1 [Compound 130, 6-{4-[2-amino-6-methyl-5-(1-methylethenyl)pyrimidin-4-yl]-9-methyl-2,3,4,5-tetrahydro-1,4-benzoxazepin-7-yl}[1,3]thiazolo[5,4-b]pyridin-2-amine] | ≤ 100
Cc1cc(-c2cnc(N)c(S(N)(=O)=O)c2)cc2c1OCCN(c1nc(N)nc(C)c1C(C)C)C2 [Compound 5, 2-amino-5-{4-[2-amino-6-methyl-5-(1-methylethyl)pyrimidin-4-yl]-9-methyl-2,3,4,5-tetrahydro-1,4-benzoxazepin-7-yl}pyridine-3-sulfonamide] | ≤ 100
Cc1cc(-c2cnc3sc(N)nc3c2)cc2c1OCCN(c1nc(N)c(C#N)cc1C#N)C2 [Compound 32, 2-amino-6-[7-(2-amino[1,3]thiazolo[5,4-b]pyridin-6-yl)-9-methyl-2,3-dihydro-1,4-benzoxazepin-4(5H)-yl]pyridine-3,5-dicarbonitrile] | ≤ 100
CSc1nc(Cl)c(C(C)(C)O)c(N2CCOc3c(C)cc(-c4cnc5sc(N)nc5c4)cc3C2)n1 [Compound 114, 2-{4-[7-(2-amino[1,3]thiazolo[5,4-b]pyridin-6-yl)-9-methyl-2,3-dihydro-1,4-benzoxazepin-4(5H)-yl]-6-chloro-2-(methylthio)pyrimidin-5-yl}propan-2-ol] | 100 to 500
Cc1cc(-c2cnc3sc(N)nc3c2)cc2c1OCCN(c1nc(CN3CCCC3)nc(C)c1C(C)C)C2 [Compound 59, 6-{9-methyl-4-[6-methyl-5-(1-methylethyl)-2-(pyrrolidin-1-ylmethyl)pyrimidin-4-yl]-2,3,4,5-tetrahydro-1,4-benzoxazepin-7-yl}[1,3]thiazolo[5,4-b]pyridin-2-amine] | ≤ 100
Cc1cc(-c2cccc(C(N)=O)c2)cc2c1OCCN(c1nc(N)nc(C)c1C(C)C)C2 [Compound 77, 3-{4-[2-amino-6-methyl-5-(1-methylethyl)pyrimidin-4-yl]-9-methyl-2,3,4,5-tetrahydro-1,4-benzoxazepin-7-yl}benzamide] | 100 to 500
C#CCc1c(C)nc(C)nc1N1CCOc2c(C)cc(-c3cnc4sc(N)nc4c3)cc2C1 [Compound 138, 6-[4-(2,6-dimethyl-5-prop-2-yn-1-ylpyrimidin-4-yl)-9-methyl-2,3,4,5-tetrahydro-1,4-benzoxazepin-7-yl][1,3]thiazolo[5,4-b]pyridin-2-amine] | ≤ 100
Cc1cc(-c2cnc3sc(N)nc3c2)cc2c1OCCN(c1nc(CN3CCC(F)(F)C3)nc(C)c1C(C)C)C2 [Compound 91, 6-(4-{2-[(3,3-difluoropyrrolidin-1-yl)methyl]-6-methyl-5-(1-methylethyl)pyrimidin-4-yl}-9-methyl-2,3,4,5-tetrahydro-1,4-benzoxazepin-7-yl)[1,3]thiazolo[5,4-b]pyridin-2-amine] | ≤ 100
Cc1cc(-c2cncc(NS(C)(=O)=O)c2)cc2c1OCCN(c1nc(N)nc(C)c1C(C)C)C2 [Compound 18, N-(5-{4-[2-amino-6-methyl-5-(1-methylethyl)pyrimidin-4-yl]-9-methyl-2,3,4,5-tetrahydro-1,4-benzoxazepin-7-yl}pyridin-3-yl)methanesulfonamide] | 100 to 500
Cc1cc(-c2cnc(Cl)c(NS(C)(=O)=O)c2)cc2c1OCCN(c1ncc(C#N)c(N)n1)C2 [Compound 28, N-{5-[4-(4-amino-5-cyanopyrimidin-2-yl)-9-methyl-2,3,4,5-tetrahydro-1,4-benzoxazepin-7-yl]-2-chloropyridin-3-yl}methanesulfonamide] | ≤ 100
CCc1nc(N)nc(N2CCOc3c(C)cc(-c4cnc5sc(N)nc5c4)cc3C2)c1C(C)C [Compound 56, 6-{4-[2-amino-6-ethyl-5-(1-methylethyl)pyrimidin-4-yl]-9-methyl-2,3,4,5-tetrahydro-1,4-benzoxazepin-7-yl}[1,3]thiazolo[5,4-b]pyridin-2-amine] | ≤ 100
